Laboratory results as given in patent publication US10045968B2, “Bicyclic compound, production and use thereof” (TOBIRA THERAPEUTICS, INC., priority 2001, dated 2018).

Target: T1, human CCR5 (Homo sapiens, UniProt P51681)
T1 construct: expressed in transfected cells; host or cells: CHO-K1 cells, stably transfected with pCKR5 (pcDNA3.1 backbone), Geneticin-selected
Experiment: Inhibition of [125I]-RANTES binding to CCR5/CHO cells (CCR5 antagonist activity)
Settings: 40 min, test compound 1 μM, 100 pM [125I]-RANTES as ligand, room temperature, read-out: Binding Inhibitory Ratio (%)
Method: (1) Cloning of Human CCR5 Chemokine Receptor Cloning of CCR5 gene was conducted from human spleen cDNA by PCR method. Using cDNA (0.5 ng) from spleen (Toyobo, QUICK-Clone cDNA) as a genetic template, primer sets prepared by referring to CCR5 gene nucleotide sequence described by Samson et al. (Biochemistry 35 (11), 3362-3367 (1996), i.e., (2) Preparation of Expression Plasmid of Human CCR5 […] The DNA fragments and an expression plasmid for animal cells pcDN A3.1 (Funakoshi), which was previously digested by XbaI and BamHI, were mixed and ligated by DNA Ligation Kit Ver. 2 (Takara Shuzo). Transformation of E. coli JM109 competent cells (Takara Shuzo) gave plasmid pCKR5. (3) Introduction of the Human CCR5 Expression Plasmid into CHO-K1 Cells and Expression Thereof […] The cells were washed with PBS (Lifetech Oriental), centrifuged (1000 rpm, 5 minutes), and resuspended in PBS. The DNA was introduced into the cells using Gene Pulser (BioRad) according to the following conditions. […] The cells were diluted to a concentration of 10^4 cells/ml, and inoculated in 96 well plate (Becton Dickinson), to obtain Geneticin-resistant cells. The Geneticin-resistant cells ware grown in 96 well plate (Becton Dickinson), and CCR5 expressing cells were selected from the resistant cells. Namely, in an assay buffer, (Ham F12 medium containing 0.5% BSA, and 20 mM HEPES (Wako Pure Chemical Ind., pH 7.2)), containing 200 pM [^125I]-RANTES (Amersham) as a ligand, the cells were subjected to binding reaction at room temperature for 40 minutes. The well plate containing the cells was washed with ice-cooled PBS, added with 1M NaOH in an amount of 50 μl/well and stirred. The cells to which the ligand bound specifically, i.e., CCR5/CHO cells, were selected by measurement of radioactivity by γ-counter. (4) Evaluation of Compounds Based on CCR5 Antagonist Activity The CCR5/CHO cells were inoculated in 96 well microplate at a concentration of 5×10^4 cells/well, and grown for 24 hours. After removal of the medium by aspiration, to each well was added an assay buffer containing a test compound (1 μM), and (^125I)/RANTES (Amersham) used as a ligand at a concentration of 100 pM. The mixture was subjected to the reaction at room temperature for 40 minutes. After removal of the assay buffer by aspiration, each well was washed with cooled PBS twice. Then, 200 μl MicroScint 20 (Packerd) was added to each well, and the radioactivity of each well was measured by TopCount (Packard). According to the method above, inhibitory ratios to CCR5 binding of the test compounds were determined.

T1 sequence (P51681 whole entry): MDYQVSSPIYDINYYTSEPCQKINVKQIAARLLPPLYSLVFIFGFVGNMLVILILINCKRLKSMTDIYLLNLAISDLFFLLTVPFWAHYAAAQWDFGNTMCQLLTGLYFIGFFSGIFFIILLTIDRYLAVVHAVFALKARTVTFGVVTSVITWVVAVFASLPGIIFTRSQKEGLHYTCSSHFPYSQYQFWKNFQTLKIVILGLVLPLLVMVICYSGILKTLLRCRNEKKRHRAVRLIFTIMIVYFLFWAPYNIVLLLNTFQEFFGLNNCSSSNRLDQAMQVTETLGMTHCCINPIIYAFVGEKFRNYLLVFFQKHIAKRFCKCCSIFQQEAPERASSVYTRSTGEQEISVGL

Q: For `CCCCOCCOc1ccc(-c2ccc3c(c2)C=C(C(=O)Nc2ccc(SCc4nncn4CCC)cc2)CCCN3CC(C)C)cc1` [Compound 46, 8-[4-(2-butoxyethoxy)phenyl]-1-isobutyl-N-[4-[[(4-propyl-4H-1,2,4-triazol-3-yl)methyl]thio]phenyl]-1,2,3,4-tetrahydro-1-benzazocine-5-carboxamide], which inhibition at 1 µM is on record?
A: 99%

Tested on: not given
Experiment: not given
Settings: not given

Q: Which melting point does the source give for `CCCCOCCOc1ccc(-c2ccc3c(c2)C=C(C(=O)Nc2ccc(SCc4nccn4CCCC(=O)OCC)cc2)CCCN3CC(C)C)cc1` [Compound 33, ethyl 4-(2-(((4-(((8-(4-(2-butoxyethoxy)phenyl)-1-isobutyl-1,2,3,4-tetrahydro-1-benzoazocine-5-yl)carbonyl)amino)phenyl)sulfanyl)-methyl)imidazol-1-yl)butanoate] here?
A: 130 to 131 °C

Q: Which melting point does the source give for `CCCCOCCOc1ccc(-c2ccc3c(c2)C=C(C(=O)Nc2ccc(SCc4nncn4CCC)cc2)CCCN3CC(C)C)cc1` [Compound 46, 8-[4-(2-butoxyethoxy)phenyl]-1-isobutyl-N-[4-[[(4-propyl-4H-1,2,4-triazol-3-yl)methyl]thio]phenyl]-1,2,3,4-tetrahydro-1-benzazocine-5-carboxamide] here?
A: 122 to 126 °C

Q: Which melting point does the source give for `CCCCOCCOc1ccc(-c2ccc3c(c2)C=C(C(=O)Nc2ccc([S+]([O-])Cc4nncn4CCC)cc2)CCCN3CC(C)C)cc1` (stereo not drawn) [Compound 47, 8-[4-(2-butoxyethoxy)phenyl]-1-isobutyl-N-[4-[[(4-propyl-4H-1,2,4-triazol-3-yl)methyl]sulfinyl]phenyl]-1,2,3,4-tetrahydro-1-benzazocin-5-carboxamide] here?
A: 105 to 110 °C

Q: For `CCCCOCCOc1ccc(-c2ccc3c(c2)C=C(C(=O)Nc2ccc([S+]([O-])Cc4nncn4CCC)cc2)CCCN3CCC)cc1` (stereo not drawn) [Compound 51, 8-[4-(2-butoxyethoxy)phenyl]-1-propyl-N-[4-[[(4-propyl-4H-1,2,4-triazol-3-yl)methyl]sulfinyl]phenyl]-1,2,3,4-tetrahydro-1-benzazocine-5-carboxamide], which melting point is on record?
A: 167 to 170 °C

Q: For `CCCCOCCOc1ccc(-c2ccc3c(c2)C=C(C(=O)Nc2ccc([S+]([O-])Cc4nccn4CCCC(=O)OCC)cc2)CCCN3CC(C)C)cc1` (stereo not drawn) [Compound 54, ethyl 4-(2-(((4-(((8-(4-(2-butoxyethoxy)phenyl)-1-isobutyl-1,2,3,4-tetrahydro-1-benzazocine-5-yl)carbonyl)amino)phenyl)sulfinyl)methyl)imidazol-1-yl)butanoate], which melting point is on record?
A: 133.5 to 134.5 °C
